Values of other authors, collected in PubChem BioAssay AID1259409 (Chemical Carcinogenesis Research Information System (CCRIS), 2018).

Test system: rodent chemically induced tumor inhibition, incidence and multiplicity
Test: CCRIS tumor inhibitor studies
Settings: for tumour outcome (control, treated, inhibition, significance): Species: RAT, Promoter: NONE USED

Compound: CCC(=O)O[C@H]1CC[C@H]2[C@@H]3CCC4=CC(=O)CC[C@]4(C)[C@H]3CC[C@]12C
- tumour outcome (control, treated, inhibition, significance) (Carcinogen: CADMIUM CHLORIDE, 10108-64-2, Dose [Inhibitor]: APPROXIMATELY NORMAL CIRCULATING LEVELS OF TESTOSTERONE BEGINNING 2 WK PRIOR TO CARCINOGEN TREATMENT, IMPLANTS REPLACED, Route [Inhibitor]: SUBCUTANEOUS IMPLANT, Strain/Sex: F344/MALE, Target Tissue: Type of Lesion: HEMATOPOIETIC SYSTEM: LEUKEMIA, Dose [Carcinogen]: 20 UMOL 1/WK FOR 5 WK): 9/40 (23%), 10/37 (27%), -17%, not significant
- tumour outcome (control, treated, inhibition, significance) (Carcinogen: CADMIUM CHLORIDE, 10108-64-2, Dose [Inhibitor]: APPROXIMATELY NORMAL CIRCULATING LEVELS OF TESTOSTERONE BEGINNING 2 WK PRIOR TO CARCINOGEN TREATMENT, IMPLANTS REPLACED, Route [Inhibitor]: SUBCUTANEOUS IMPLANT, Strain/Sex: F344/MALE, Target Tissue: Type of Lesion: INJECTION SITE: SARCOMA, Dose [Carcinogen]: 20 UMOL 1/WK FOR 5 WK): 28/40 (70%), 22/37 (59%), 16%, not significant
- tumour outcome (control, treated, inhibition, significance) (Carcinogen: CADMIUM CHLORIDE, 10108-64-2, Dose [Inhibitor]: APPROXIMATELY NORMAL CIRCULATING LEVELS OF TESTOSTERONE BEGINNING 2 WK PRIOR TO CARCINOGEN TREATMENT, IMPLANTS REPLACED, Route [Inhibitor]: SUBCUTANEOUS IMPLANT, Strain/Sex: F344/MALE, Target Tissue: Type of Lesion: TESTES: TUMOR, Dose [Carcinogen]: 20 UMOL 1/WK FOR 5 WK): 34/40 (85%), 0/37 (0%), 100%, p<0.05
- tumour outcome (control, treated, inhibition, significance) (Carcinogen: N-NITROSOBIS(2-OXOPROPYL)AMINE, 60599-38-4, Dose [Inhibitor]: 0, 40 MG PELLET INSERTED IN THE INTERSCAPULAR REGION AND REPLACED EVERY 6 WK FOR LIFE BEGINNING POST LAST CARCINOGEN DOS, Route [Inhibitor]: SUBCUTANEOUS, Strain/Sex: MRC/MALE, Target Tissue: Type of Lesion: COLON: TUMOR, Dose [Carcinogen]: 10 MG/KG 1/WK FOR 20 WK): 2/26 (8%), 1/24 (4%), 50%, not calculated
- tumour outcome (control, treated, inhibition, significance) (Carcinogen: N-NITROSOBIS(2-OXOPROPYL)AMINE, 60599-38-4, Dose [Inhibitor]: 0, 40 MG PELLET INSERTED IN THE INTERSCAPULAR REGION AND REPLACED EVERY 6 WK FOR LIFE BEGINNING POST LAST CARCINOGEN DOS, Route [Inhibitor]: SUBCUTANEOUS, Strain/Sex: MRC/MALE, Target Tissue: Type of Lesion: RECTUM: TUMOR, Dose [Carcinogen]: 10 MG/KG 1/WK FOR 20 WK): 9/26 (35%), 14/24 (58%), -66%, not calculated
- tumour outcome (control, treated, inhibition, significance) (Carcinogen: N-NITROSOBIS(2-OXOPROPYL)AMINE, 60599-38-4, Dose [Inhibitor]: 0, 40 MG PELLET INSERTED IN THE INTERSCAPULAR REGION AND REPLACED EVERY 6 WK FOR LIFE BEGINNING WITH FIRST CARCINOGEN DO, Route [Inhibitor]: SUBCUTANEOUS, Strain/Sex: MRC/MALE, Target Tissue: Type of Lesion: COLON: TUMOR, Dose [Carcinogen]: 10 MG/KG 1/WK FOR 20 WK): 2/26 (8%), 0/29 (0%), 100%, not calculated
- tumour outcome (control, treated, inhibition, significance) (Carcinogen: N-NITROSOBIS(2-OXOPROPYL)AMINE, 60599-38-4, Dose [Inhibitor]: 0, 40 MG PELLET INSERTED IN THE INTERSCAPULAR REGION AND REPLACED EVERY 6 WK FOR LIFE BEGINNING WITH FIRST CARCINOGEN DO, Route [Inhibitor]: SUBCUTANEOUS, Strain/Sex: MRC/MALE, Target Tissue: Type of Lesion: RECTUM: TUMOR, Dose [Carcinogen]: 10 MG/KG 1/WK FOR 20 WK): 9/26 (35%), 0/29 (0%), 100%, p<0.005
- tumour outcome (control, treated, inhibition, significance) (Carcinogen: N-NITROSOBIS(2-OXOPROPYL)AMINE, 60599-38-4, Dose [Inhibitor]: 0, 40 MG PELLET INSERTED IN THE INTERSCAPULAR REGION AND REPLACED EVERY 6 WK FOR LIFE BEGINNING WITH FIRST CARCINOGEN DO, Route [Inhibitor]: SUBCUTANEOUS, Strain/Sex: MRC/MALE, Target Tissue: Type of Lesion: RECTUM: TUMOR, Dose [Carcinogen]: 20 MG/KG 1/D FOR 3 D): 6/13 (46%), 0/25 (0%), 100%, p<0.005

Compound: S=C=Nc1cc2ccccc2c2ccccc12
- outcome (Carcinogen: BENZO[A]PYRENE, 50-32-8, Dose [Inhibitor]: 0, 5 UMOL IN ACETONE 4 HR PRIOR TO CARCINOGEN DOSE (STUDY DURATION: 20 WK), Route [Inhibitor]: DERMAL, Species: MOUSE, Strain/Sex: STRAIN-A/FEMALE, Target Tissue: Type of Lesion: SKIN: TUMOR, Dose [Carcinogen]: 0.1 UMOL IN ACETONE ONCE, Promoter: 12-O-TETRADECANOYLPHORBOL-13-ACETATE, 16561-29-8): 85%, 95%, -12%, not significant at 15 wk; 95%, 95%, 0%, not significant at 20 wk

Compound: C=CC/C(=N/OS(=O)(=O)O)S[C@@H]1O[C@H](CO)[C@@H](O)[C@H](O)[C@H]1O
- tumour outcome (control, treated, inhibition, significance) (Carcinogen: 4-NITROQUINOLINE-1-OXIDE, 56-57-5, Dose [Inhibitor]: 0, 1200 PPM IN DIET BEGINNING 1 WK POST CARCINOGEN TREATMENT AND CONTINUING FOR 23 WK (STUDY DURATION: 37 WK), Route [Inhibitor]: ORAL, Strain/Sex: ACI/N/MALE, Target Tissue: Type of Lesion: TONGUE: CARCINOMA, Dose [Carcinogen]: 10 PPM IN DRINKING WATER FOR 12 WK): 12/17 (71%), 0/15 (0%), 100%, p 0.0003
- tumour outcome (control, treated, inhibition, significance) (Carcinogen: 4-NITROQUINOLINE-1-OXIDE, 56-57-5, Dose [Inhibitor]: 0, 1200 PPM IN DIET BEGINNING 1 WK POST CARCINOGEN TREATMENT AND CONTINUING FOR 23 WK (STUDY DURATION: 37 WK), Route [Inhibitor]: ORAL, Strain/Sex: ACI/N/MALE, Target Tissue: Type of Lesion: TONGUE: PAPILLOMA, Dose [Carcinogen]: 10 PPM IN DRINKING WATER FOR 12 WK): 5/17 (29%), 2/15 (13%), 55%, not calculated
- tumour outcome (control, treated, inhibition, significance) (Carcinogen: 4-NITROQUINOLINE-1-OXIDE, 56-57-5, Dose [Inhibitor]: 0, 1200 PPM IN DIET BEGINNING 1 WK PRIOR TO CARCINOGEN TREATMENT AND CONTINUING FOR 1 WK POST CARCINOGEN TREATMENT (STUD, Route [Inhibitor]: ORAL, Strain/Sex: ACI/N/MALE, Target Tissue: Type of Lesion: TONGUE: CARCINOMA, Dose [Carcinogen]: 10 PPM IN DRINKING WATER FOR 12 WK): 12/17 (71%), 0/15 (0%), 100%, p 0.00003
- tumour outcome (control, treated, inhibition, significance) (Carcinogen: 4-NITROQUINOLINE-1-OXIDE, 56-57-5, Dose [Inhibitor]: 0, 1200 PPM IN DIET BEGINNING 1 WK PRIOR TO CARCINOGEN TREATMENT AND CONTINUING FOR 1 WK POST CARCINOGEN TREATMENT (STUD, Route [Inhibitor]: ORAL, Strain/Sex: ACI/N/MALE, Target Tissue: Type of Lesion: TONGUE: PAPILLOMA, Dose [Carcinogen]: 10 PPM IN DRINKING WATER FOR 12 WK): 5/17 (29%), 1/15 (7%), 76%, not calculated
- tumour outcome (control, treated, inhibition, significance) (Carcinogen: DIETHYLNITROSAMINE, 55-18-5, Dose [Inhibitor]: 0, 1200 PPM IN DIET BEGINNING 1 WK PRIOR TO FIRST CARCINOGEN DOSE AND CONTINUING TO 1 WK POST LAST CARCINOGEN DOSE (STUD, Route [Inhibitor]: ORAL, Strain/Sex: ACI/N/MALE, Target Tissue: Type of Lesion: LIVER: ADENOMA, Dose [Carcinogen]: 40 PPM IN DRINKING WATER FOR 5 WK): 10/10 (100%), 2/12 (17%), 83%, p<0.0002
- tumour outcome (control, treated, inhibition, significance) (Carcinogen: DIETHYLNITROSAMINE, 55-18-5, Dose [Inhibitor]: 0, 1200 PPM IN DIET BEGINNING 1 WK PRIOR TO FIRST CARCINOGEN DOSE AND CONTINUING TO 1 WK POST LAST CARCINOGEN DOSE (STUD, Route [Inhibitor]: ORAL, Strain/Sex: ACI/N/MALE, Target Tissue: Type of Lesion: LIVER: CARCINOMA, Dose [Carcinogen]: 40 PPM IN DRINKING WATER FOR 5 WK): 10/10 (100%), 4/12 (33%), 67%, p<0.002
